Reference: ChEMBL document CHEMBL1155607, “Antigiardial activity of isoflavones from Dalbergia frutescens bark” (J Nat Prod, 2000)
≈ marks a conversion by molar mass, not a printed value. Each block holds one molecule with its values, some of them ahead of it. Calls of active or inactive are those of the source. The rule behind the calls is not given here.

Columns and labels:
Giardia intestinalis [1] = test: […] activity against Giardia intestinalis ATCC 30888 at 10 ug/mL after 48 hrs by XTT assay; type: functional, organism-based; details: Giardia duodenalis
Giardia intestinalis [2] = test: Antifungal activity against Giardia intestinalis; type: functional, organism-based; details: Giardia duodenalis
Giardia intestinalis [3] = test: […] activity against Giardia intestinalis ATCC 30888 after 48 hrs by XTT assay; type: functional, organism-based; details: Giardia duodenalis
Giardia intestinalis [4] = test: […] activity against Giardia intestinalis ATCC 30888 assessed as impairment of parasite motility after 2 hrs; type: functional, organism-based; details: Giardia duodenalis
Giardia intestinalis [5] = test: […] activity against Giardia intestinalis ATCC 30888 assessed as impairment of parasite motility after 4 hrs; type: functional, organism-based; details: Giardia duodenalis
Vero = test: Cytotoxicity against african green monkey Vero cells up to 50 ug/mL after 48 hrs by neutral red dye assay; type: cell-based; details: chlorocebus sabaeus
Mus musculus [6] = test: Toxicity in C57B mouse assessed as induction of adverse grooming behavior at 40 mg/kg, po administered once daily for 3 days; type: organism-based; parameters: dose 40 mg/kg, route oral; details: in vivo, 72 h
Mus musculus [7] = test: Toxicity in C57B mouse assessed as induction of adverse feeding behavior at 40 mg/kg, po administered once daily for 3 days; type: organism-based; parameters: dose 40 mg/kg, route oral; details: in vivo, 72 h
Mus musculus [8] = test: Toxicity in C57B mouse assessed as adverse effect on body weight at 40 mg/kg, po administered once daily for 3 days; type: organism-based; parameters: dose 40 mg/kg, route oral; details: in vivo, 72 h
Mus musculus [9] = test: Toxicity in C57B mouse assessed as induction of adverse effect on gross behavior at 40 mg/kg, po administered once daily for 3 days; type: organism-based; parameters: dose 40 mg/kg, route oral; details: in vivo, 72 h
Mus musculus [10] = test: Toxicity in C57B mouse assessed as induction of adverse effect on appearance at 40 mg/kg, po administered once daily for 3 days; type: organism-based; parameters: dose 40 mg/kg, route oral; details: in vivo, 72 h
Giardia intestinalis [11] = test: […] activity against Giardia intestinalis infected in C57B mouse assessed as increase in disease cure rate at 10 mg/day administered 3 day postinfection for 4 days; type: functional, organism-based; details: Giardia duodenalis
Giardia intestinalis [12] = test: […] activity against Giardia intestinalis infected in C57B mouse assessed as decrease in intestinal parasite load at 10 mg/day administered 3 day postinfection for 4 days; type: functional, organism-based; details: Giardia duodenalis
Giardia intestinalis [13] = test: […] activity against Giardia intestinalis infected in C57B mouse assessed as intestinal motile trophozoites count at 10 mg/day administered 3 day postinfection for 4 days; type: functional, Giardia duodenalis
Trichomonas [14] = test: Antimicrobial activity against Trichomonas up to 25 ug/mL; type: functional, organism-based
Trichomonas [15] = test: Antimicrobial activity against Trichomonas; type: functional, organism-based

Structure (SMILES): COc1cc2c(=O)c(-c3ccc(O)cc3)coc2cc1O
Activity (Giardia intestinalis [1]): inactive

Structure (SMILES): COc1ccc(-c2coc3cc(O)c(OC)cc3c2=O)cc1O
Activity (Giardia intestinalis [1]): inactive

IC50 (Giardia intestinalis [2]): < 1 mg/L
Structure (SMILES): Oc1cc(O)c2c(c1)O[C@H](c1ccc(O)c(O)c1)[C@H](O)C2 [(-)-EPICATECHIN]

Structure (SMILES): COc1ccc(-c2coc3cc(O)cc(O)c3c2=O)cc1 [BIOCHANIN]
IC50 (Giardia intestinalis [3]): 3.5 mg/L (≈ 12.3 µM)

Structure (SMILES): COc1ccc(-c2coc3cc(O)c(OC)cc3c2=O)cc1 [CASTANIN]
IC50 (Giardia intestinalis [3]): > 5 mg/L

Structure (SMILES): COc1cc2c(cc1-c1coc3cc(O)ccc3c1=O)OCO2 [CUNEATIN]
IC50 (Giardia intestinalis [3]): > 10 mg/L
Activity (Giardia intestinalis [1]): inactive

Structure (SMILES): O=c1c(-c2ccc(O)cc2)coc2cc(O)ccc12 [DAIDZEIN]
IC50 (Giardia intestinalis [3]): 3.75 mg/L (≈ 14.7 µM)

IC50 (Giardia intestinalis [4]): < 1 mg/L
IC50 (Giardia intestinalis [5]): < 1 mg/L
Structure (SMILES): COc1ccc(-c2coc3cc(O)ccc3c2=O)cc1 [FORMONONETIN]
IC50 (Giardia intestinalis [3]): 0.03 mg/L (≈ 0.112 µM)
Activity (Vero): Non-toxic
Activity (Mus musculus [6]): Non-toxic
Activity (Mus musculus [7]): Non-toxic
Activity (Mus musculus [8]): Non-toxic
Activity (Mus musculus [9]): Non-toxic
Activity (Mus musculus [10]): Non-toxic
Activity (Giardia intestinalis [11]): Active
Activity (Giardia intestinalis [12]): Active
Activity (Giardia intestinalis [13]): 0.1
Activity (Trichomonas [14]): Active

Structure (SMILES): COc1cc2c(=O)c(-c3ccc4c(c3)OCO4)coc2cc1O [FUJIKINETIN]
IC50 (Giardia intestinalis [3]): 1.5 mg/L (≈ 4.8 µM)

Structure (SMILES): O=c1c(-c2ccc(O)cc2)coc2cc(O)cc(O)c12 [GENISTEIN]
IC50 (Giardia intestinalis [3]): > 5 mg/L

Structure (SMILES): Cc1ncc([N+](=O)[O-])n1CCO [METRONIDAZOLE]
IC50 (Giardia intestinalis [3]): 0.1 mg/L (≈ 0.584 µM)
Activity (Giardia intestinalis [4]): inactive
Activity (Giardia intestinalis [5]): inactive
Activity (Trichomonas [15]): Active

Structure (SMILES): O=c1c(-c2ccc3c(c2)OCO3)coc2cc(O)ccc12 [PSEUDOBAPTOGENIN]
IC50 (Giardia intestinalis [3]): 0.56 mg/L (≈ 1.98 µM)
